Patent US20230190760A1, “ADVANTAGEOUS THERAPIES FOR DISORDERS MEDIATED BY IKAROS OR AIOLOS” (C4 Therapeutics, Inc., priority 2020, published 2023)

Experiments:
[1] = biological target: IKZF1 (Homo sapiens, UniProt Q13422+Q96SW2); assay: Ikaros degradation in Ki-JK cells by flow cytometry; type: cell-based; parameters: host or cells: Ki-JK cells
Protocol: Flow cytometry was used to assess the Ikaros degradation characteristics and evaluate the mechanism of Compound 1. […] The cells were prepared for staining using the FOXP3 Fix/Perm Buffer Set (BioLegend, 421403) according to the manufacturer's instructions at 1.5, 3, and 6 hours. IKZF1-AF488 (564867) and IgG1-488 (557782) (BD Biosciences) were diluted 1:100 in Perm Buffer. Signal was detected using the Guava® easyCyte™ Flow Cytometer. […] Degradation was not observed with the combination of Compound 1 and bortezomib or MLN-4924.

[2] = test system: SR; assay: Anti-proliferative activity, 96 hours; details: Homo sapiens
[3] = test system: anaplastic large cell lymphoma (ALCL) cell lines; assay: Anti-cancer activity in ALCL cell lines; type: cell-based; details: four out of six cell lines were responsive; read-out: mean IC50 among the responsive lines
[4] = test system: OPM-2; assay: Anti-proliferative activity, 96 hours; details: Homo sapiens, OPM-2, 96 h
[5] = test system: activated B-cell DLBCL lines; assay: Anti-cancer activity in ABC-DLBCL cell lines; type: cell-based; details: three of six responsive, read-out: mean IC50 amongst the responsive lines
[6] = test system: KI-JK ALCL tumors; assay: KI-JK ALCL xenograft efficacy (Example 20); type: in vivo, mice; details: 100 μg/kg PO daily for 21 days
Protocol: A xenograft study was conducted in female NOD SCID mice bearing KI-JK ALCL tumors.
(§1) Data are expressed as MTV±SEM.

[7] = test system: Maver-1; assay: Anti-proliferative activity, 96 hours; details: Homo sapiens, Maver1, 96 h
[8] = test system: REC1 mantle cell lymphoma tumors; assay: REC1 mantle cell lymphoma xenograft, balb/c nude mice; type: in vivo
Protocol: A xenograft study was conducted in female balb/c nude mice bearing REC1 mantle cell lymphoma tumors.
Statistical analysis was performed using two-way analysis of variance (ANOVA). Data are expressed as MTV±SEM.

[9] = test system: HepG2 liver cancer cells; assay: Viability assay in HepG2 liver cancer cells; type: cell-based; details: concentrations up to 3.3 μM
[10] = test system: NCIH929 cells; assay: NCI-H929 viability assay (CellTiter-Glo)
Protocol: NCIH929 cell viability was determined based on quantification of ATP using CellTiter-Glo®2.0 luminescent Assay kit, which signals the presence of metabolically-active cells. Briefly, test compound was added to 384-well plates at a top concentration of 1 μM with 10 points, half log titration in duplicates. NCIH929 cells were seeded into the 384-well plates in RPMI medium containing 10% FBS and 0.05 mM 2-mercaptoethanol at a cell density of 750 cells per well. Cells treated in the absence of the test compound were the negative control and cells treated in the absence of CellTiter-Glo® 2.0 were the positive control. Cells treated with the test compounds were incubated at 37° C. with 5% CO2 for 96 hr. CellTiter-Glo reagent was then added to the cells and Luminescence was acquired on EnVision™ Multilabel Reader (PerkinElmer, Santa Clara, Calif., USA). % Viability was determined by normalizing the signal with positive and DMSO treated negative controls on the same microtiter plate. […] Curve fit and IC502 determination was performed by 4 parametric regression analysis.

[11] = test system: OCI-LY10; assay: Anti-proliferative activity, 96 hours; details: Homo sapiens, OCI-Ly10, 96 h
[12] = biological target: T1, IKZF3 (Homo sapiens, UniProt Q96SW2+Q9UKT9); assay: NCI-H929 xenograft pharmacodynamic and pharmacokinetic study (Example 40); type: in vivo, mice
T1 construct: from tissue; host or cells: NCI-H929 MM xenograft tumours in female NOD SCID mice
T1 sequence (Q9UKT9 whole entry): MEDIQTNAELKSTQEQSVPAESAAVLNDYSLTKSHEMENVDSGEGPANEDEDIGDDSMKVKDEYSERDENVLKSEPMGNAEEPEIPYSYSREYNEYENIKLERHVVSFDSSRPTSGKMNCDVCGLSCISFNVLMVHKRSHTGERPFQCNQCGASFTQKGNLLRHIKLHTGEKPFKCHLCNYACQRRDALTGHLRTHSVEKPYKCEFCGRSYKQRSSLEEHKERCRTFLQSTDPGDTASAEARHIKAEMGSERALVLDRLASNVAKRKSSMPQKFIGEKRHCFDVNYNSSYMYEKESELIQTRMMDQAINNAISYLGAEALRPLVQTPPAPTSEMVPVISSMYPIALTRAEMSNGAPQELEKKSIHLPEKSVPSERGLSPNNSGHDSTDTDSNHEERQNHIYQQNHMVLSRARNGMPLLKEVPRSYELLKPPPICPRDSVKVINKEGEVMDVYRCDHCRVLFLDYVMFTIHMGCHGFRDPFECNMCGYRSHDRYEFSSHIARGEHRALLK
T1 sequence (Q96SW2 whole entry): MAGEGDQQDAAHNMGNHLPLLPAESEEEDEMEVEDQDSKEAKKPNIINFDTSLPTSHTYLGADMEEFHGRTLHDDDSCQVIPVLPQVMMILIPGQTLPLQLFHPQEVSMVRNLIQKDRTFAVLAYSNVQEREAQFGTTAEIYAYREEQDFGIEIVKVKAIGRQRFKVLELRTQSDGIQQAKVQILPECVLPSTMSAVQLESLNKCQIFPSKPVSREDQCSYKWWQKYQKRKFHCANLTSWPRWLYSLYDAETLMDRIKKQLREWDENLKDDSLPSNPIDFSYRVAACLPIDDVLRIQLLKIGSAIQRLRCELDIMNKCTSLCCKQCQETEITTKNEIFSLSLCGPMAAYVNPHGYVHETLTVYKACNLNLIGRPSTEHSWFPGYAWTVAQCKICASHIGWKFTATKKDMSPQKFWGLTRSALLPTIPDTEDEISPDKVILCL
T1 sequence (Q16531 2-1140 partner limits assumed): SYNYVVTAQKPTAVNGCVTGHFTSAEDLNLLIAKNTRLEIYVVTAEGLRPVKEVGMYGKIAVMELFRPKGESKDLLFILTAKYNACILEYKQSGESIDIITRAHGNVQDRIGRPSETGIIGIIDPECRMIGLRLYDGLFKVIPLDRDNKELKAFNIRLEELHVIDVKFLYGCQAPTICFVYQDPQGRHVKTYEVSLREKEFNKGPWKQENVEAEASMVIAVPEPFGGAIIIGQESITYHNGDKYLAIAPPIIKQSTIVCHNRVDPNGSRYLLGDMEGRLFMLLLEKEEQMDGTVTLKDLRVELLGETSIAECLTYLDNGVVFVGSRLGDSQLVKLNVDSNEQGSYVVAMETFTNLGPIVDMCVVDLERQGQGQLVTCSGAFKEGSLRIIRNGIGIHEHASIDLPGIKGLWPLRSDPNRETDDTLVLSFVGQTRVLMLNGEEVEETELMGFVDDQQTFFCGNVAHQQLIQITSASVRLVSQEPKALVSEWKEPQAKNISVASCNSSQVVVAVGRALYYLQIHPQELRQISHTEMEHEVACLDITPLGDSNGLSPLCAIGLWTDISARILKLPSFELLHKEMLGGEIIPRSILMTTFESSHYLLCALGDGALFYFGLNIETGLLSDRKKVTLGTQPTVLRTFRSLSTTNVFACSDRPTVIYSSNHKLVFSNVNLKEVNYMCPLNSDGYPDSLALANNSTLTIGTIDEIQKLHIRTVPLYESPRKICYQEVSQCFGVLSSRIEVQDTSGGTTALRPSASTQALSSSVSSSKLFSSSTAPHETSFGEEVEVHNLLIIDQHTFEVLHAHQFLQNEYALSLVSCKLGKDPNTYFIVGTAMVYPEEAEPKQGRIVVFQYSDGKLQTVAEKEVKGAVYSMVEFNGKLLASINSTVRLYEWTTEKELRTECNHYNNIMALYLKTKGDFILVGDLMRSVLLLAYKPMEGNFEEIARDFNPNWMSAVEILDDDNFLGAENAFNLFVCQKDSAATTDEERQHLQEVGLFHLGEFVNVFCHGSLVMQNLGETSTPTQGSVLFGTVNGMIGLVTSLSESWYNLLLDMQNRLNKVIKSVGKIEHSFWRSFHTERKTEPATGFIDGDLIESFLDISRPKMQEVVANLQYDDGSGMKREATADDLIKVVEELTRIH
Protocol: A xenograft study was conducted in female NOD SCID mice bearing NCI-H929 MM tumors. Female SCID mice were inoculated subcutaneously in the right flank with 10×10^6 tumors cells in 0.2 mL of PBS supplemented with matrigel (PBS:matrigel=1:1). Tumor volume was measured twice weekly in two dimensions using calipers, and volume was calculated using the formula: (w2×l)/2=mm^3, assuming 1 mg is equivalent to 1 mm^3 of tumor volume.
For the pharmacodynamic and pharmacokinetic portion of this study 3 mice were sacrificed per time point with tumors and plasma harvested, with mice in the vehicle control group being sacrificed 24 post single dose. […] Tumors were then mechanically homogenized, and protein extracted using RIPA buffer (Sigma Aldrich). Protein concentration was quantified using a Pierce™ BCA Protein Assay Kit, samples were reduced, and equal protein amounts were then loaded onto a western blot gel for analysis. […] The intensity of individual bands was measured for data analysis using Image Studio NIR software. Protein expression was quantitated in relation to the reference protein, GAPDH, to control for total protein concentration. […] Data is represented as percent of target present in the vehicle control and normalized for total protein. […]

[13] = test system: DL-40 ALCL tumors; assay: DL-40 ALCL xenograft efficacy (Example 18); type: in vivo, mice; details: PO daily for 21 days
Protocol: A xenograft study was conducted in female NOD SCID mice bearing DL-40 ALCL tumors.
as §1

Chain of IKZF1 (Q13422 whole entry): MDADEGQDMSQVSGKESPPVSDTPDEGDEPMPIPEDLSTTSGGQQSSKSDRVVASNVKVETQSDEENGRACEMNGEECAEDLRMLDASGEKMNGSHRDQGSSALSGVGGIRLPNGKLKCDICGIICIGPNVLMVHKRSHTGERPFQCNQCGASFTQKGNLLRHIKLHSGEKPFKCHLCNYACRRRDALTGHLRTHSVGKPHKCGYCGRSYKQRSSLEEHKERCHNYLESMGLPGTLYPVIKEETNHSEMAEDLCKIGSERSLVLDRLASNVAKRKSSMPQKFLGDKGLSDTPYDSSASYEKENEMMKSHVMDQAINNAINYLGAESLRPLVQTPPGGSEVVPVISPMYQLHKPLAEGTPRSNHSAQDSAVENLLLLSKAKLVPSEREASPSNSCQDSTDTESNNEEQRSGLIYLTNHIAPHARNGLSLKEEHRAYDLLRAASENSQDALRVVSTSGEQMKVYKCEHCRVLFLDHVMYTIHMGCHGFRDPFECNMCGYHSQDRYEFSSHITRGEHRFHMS
Chain of IKZF1 (Q96SW2 whole entry): as the sequence (Q96SW2 whole entry) above
Chain of IKZF1 (Q16531 2-1140 partner limits assumed): as the sequence (Q16531 2-1140 partner limits assumed) above

## O=C1CC[C@H](N2C(=O)c3cccc4c(Cc5ccc(CN6CCOCC6)cc5)ccc2c34)C(=O)N1 (single isomer, unassigned) [Compound 1]
[1]; 0.001-100 nM, read at 1.5, 3 and 6 hours
  time of maximal Ikaros degradation: 6 h
[1]; with bortezomib (10 μM) or MLN-4924 (10 μM), 6 hours
  Ikaros degradation with proteasome or neddylation inhibitor: not observed
[2]
  IC50: 16.2 nM
[3]
  IC50: 1.7 nM
[4]
  IC50: 0.058 nM
[5]
  IC50: 1.6 nM
[6]
  tumor volume: reduced tumor volume
[7]
  IC50: 12.1 nM
[8]; 30 μg/kg PO daily
  Statistical Significance Compared to Vehicle: 0.04
[8]; 100 μg/kg PO daily
  Statistical Significance Compared to Vehicle: 0.04
[8]; Compound 1 10, 30, or 100 μg/kg, pomalidomide 3000 μg/kg, 18 days
  tumor volume: decreased
[9]
  effect on viability: no significant effect
[10]; 96 hours, % viability
  Mean Emax (%) ± SD, H929 Viability: 4.0 ± 0.5%
[10]; previously untreated NCIH929
  maximal growth inhibition: 96%
[10]; read-out: Mean IC50 (nM), H929 Viability, 96 hours
  IC50: 0.071 nM
[11]
  IC50: 0.03 nM
[12]; NCI-H929 tumor model, single dose
  time for the IKZF3 level to reach 50% of its pretreatment level: more than 48 hours
[12]; dosed at a 10-fold lower dose than CC-92480
  duration of plasma and tumor concentrations: measurable plasma and tumor concentrations for longer than CC-92480
[13]
  tumor volume versus pomalidomide: more successful at decreasing tumor volume than pomalidomide
